Measured values taken from patent US20240325413A1, “FORMULATIONS FOR THE TREATMENT OF RESPIRATORY DISORDERS” (484 Science Corp, priority 2021, published 2024).

Tests used:
[1] = Next Generation Impactor (NGI) testing of pMDI prototype formulations; assay type: physicochemical; details: for Fine Particle Dose: Stages 3 to MOC; for Actual Emitted dose: Throat stage to MOC
Experimental: The Next Generation Pharmaceutical Impactor (NGI) testing is performed using Copley and MSP instruments. Emitted dose or Ex-device is calculated as the total dose deposited in the NGI apparatus starting from Throat stage to Micro-orifice collector (MOC). The Fine Particle Dose (FPD) is calculated as the total dose deposited in Stages 3 to MOC of the NGI apparatus. Mass Median Aerodynamic Diameter (MMAD) and Geometric Standard Deviation (GSD) is calculated from aerodynamic particle size distribution of particles in different stages of the NGI apparatus.

[2] = Total emitted dose of the APIs from pMDI prototype formulations, HPLC assay; assay type: physicochemical; set-up: unit not given here; details: pMDI Formulation 1-4; for emitted dose, Mean: Mean of ED 1 to ED 8
Experimental: An optimized HPLC assay method was developed for the assay of prototype formulations.
The total emitted dose from APIs ED 1 to ED 8 was then analyzed using the HPLC Assay.

Row | Structure (SMILES) | % Emitted dose ([1]; Formulation 1) [%] | % Fine Particle Dose ([1]; Formulation 1) [%] | GSD ([1]; Formulation 1) | MMAD ([1]; Formulation 1) [µm] | Fine Particle Dose ([1]; Formulation 1) [µg] | Actual Emitted dose ([1]; Formulation 1) [µg] | % Emitted dose ([1]; Formulation 2) [%] | % Fine Particle Dose ([1]; Formulation 2) [%] | GSD ([1]; Formulation 2) | MMAD ([1]; Formulation 2) [µm] | Fine Particle Dose ([1]; Formulation 2) [µg] | % Emitted dose ([1]; Formulation 4) [%] | % Fine Particle Dose ([1]; Formulation 4) [%] | GSD ([1]; Formulation 4) | MMAD ([1]; Formulation 4) [µm] | Fine Particle Dose ([1]; Formulation 4) [µg] | Actual Emitted dose ([1]; Formulation 4) [µg] | emitted dose ([2]; ED 7) | emitted dose ([2]; ED 8) | emitted dose, Mean [2] | also measured
1 | C[N+]1(C)CCC(OC(=O)C(O)(c2ccccc2)C2CCCC2)C1 (stereo not shown) [Glycopyrronium, glycopyrronium, reference compound] | 104 | 29 | 2 | 4.9 | 7.8 | 28.0 | 116 | 28 | 2 | 5.15 | 7.7 | 104 | 25 | 2 | 5.65 | 6.8 | 28.1 | 27.0 | 30.2 | 29.0 | Actual Emitted dose ([1]; Formulation 2): 31.4 µg; % Emitted dose ([1]; Formulation 3): 106%; % Fine Particle Dose ([1]; Formulation 3): 31%; GSD ([1]; Formulation 3): 2; MMAD ([1]; Formulation 3): 5.1 µm; Fine Particle Dose ([1]; Formulation 3): 8.3 µg; Actual Emitted dose ([1]; Formulation 3): 28.6 µg; emitted dose ([2]; ED 1): 27.6; emitted dose ([2]; ED 2): 28.7; emitted dose ([2]; ED 3): 27.5; emitted dose ([2]; ED 4): 28.5; emitted dose ([2]; ED 5): 30.3; emitted dose ([2]; ED 6): 32.4
2 | C=C(C)[C@@H]1CCC(C)=C[C@H]1c1c(O)cc(CCC)cc1O [CBDV, cannabidivarin] |  |  |  |  |  |  |  |  |  |  |  | 98 | 33 | 3 | 5.1 | 66.5 | 195.2 | 265.4 | 278.5 | 272.0 | % Emitted dose ([1]; Formulation 3): 91%; % Fine Particle Dose ([1]; Formulation 3): 36%; GSD ([1]; Formulation 3): 3; MMAD ([1]; Formulation 3): 4.6 µm; Fine Particle Dose ([1]; Formulation 3): 108.0 µg; Actual Emitted dose ([1]; Formulation 3): 272.0 µg
3 | CCCCCc1cc(O)c2c(c1)OC(C)(CCC=C(C)C)C=C2 (stereo not shown) [CBC, cannabichromene] | 89 | 36 | 3 | 4.5 | 108.6 | 266.1 |  |  |  |  |  | 105 | 36 | 3 | 5.2 | 71.1 | 209.4 | 262.4 | 269.8 | 266.1 | 
4 | C=C(C)[C@@H]1CCC(C)=C[C@H]1c1c(O)cc(CCCCC)cc1O [CBD, cannabidiol, reference compound] | 104 | 41 | 3 | 4.6 | 122.8 | 312.1 | 96 | 37 | 3 | 4.5 | 111.0 | 96 | 36 | 3 | 4.75 | 109.5 | 288.1 | 301.6 | 304.3 | 298.0 | Actual Emitted dose ([1]; Formulation 2): 288.7 µg; % Emitted dose ([1]; Formulation 3): 101%; % Fine Particle Dose ([1]; Formulation 3): 40%; GSD ([1]; Formulation 3): 3; MMAD ([1]; Formulation 3): 4.4 µm; Fine Particle Dose ([1]; Formulation 3): 120.8 µg; Actual Emitted dose ([1]; Formulation 3): 303.0 µg; emitted dose ([2]; ED 1): 287.0; emitted dose ([2]; ED 2): 289.2; emitted dose ([2]; ED 3): 308.0; emitted dose ([2]; ED 4): 316.2; emitted dose ([2]; ED 5): 284.9; emitted dose ([2]; ED 6): 292.6
5 | CCCCCc1cc(O)c2c(c1)OC(C)(C)c1ccc(C)cc1-2 [CBN, cannabinol] |  |  |  |  |  |  | 87 | 35 | 3 | 4.4 | 105.8 | 95 | 34 | 3 | 5 | 68.2 | 189.1 | 255.7 | 263.5 | 259.6 | Actual Emitted dose ([1]; Formulation 2): 259.6 µg
6 | CCCCCc1cc(O)c(C/C=C(\C)CCC=C(C)C)c(O)c1 [CBG, cannabigerol] | 115 | 43 | 3 | 4.7 | 129.5 | 345.7 | 109 | 39 | 3 | 4.65 | 118.0 | 106 | 34 | 3 | 5.25 | 67.5 | 212.1 | 331.0 | 332.1 | 335.2 | Actual Emitted dose ([1]; Formulation 2): 328.3 µg; % Emitted dose ([1]; Formulation 3): 111%; % Fine Particle Dose ([1]; Formulation 3): 43%; GSD ([1]; Formulation 3): 3; MMAD ([1]; Formulation 3): 4.5 µm; Fine Particle Dose ([1]; Formulation 3): 127.5 µg; Actual Emitted dose ([1]; Formulation 3): 331.6 µg; emitted dose ([2]; ED 3): 338.2; emitted dose ([2]; ED 4): 353.3; emitted dose ([2]; ED 5): 323.7; emitted dose ([2]; ED 6): 332.9
